Data from publication PMC4855798, “Cell-bound lipases from Burkholderia sp. ZYB002: gene sequence analysis, expression, enzymatic characterization, and 3D structural model” (BMC Biotechnology, 2016).

Tested on: T1, LipC24
T1 construct: mature LipC24 coding region (ORF 438 aa), His6-tag, E. coli Origami2 (DE3), co-expressed with foldase LipB lacking N-terminal 70 residues; purified by HisTrap and DEAE, single 45 kDa band; counterpart in B. cepacia J2315 is BCAM2764
Experiment: spectrophotometric 4-nitrophenol release, non-linear regression
Assay type: biochemical, Burkholderia sp. ZYB002
Details: 40 °C, 20 mmol/L Na2HPO4-NaH2PO4 buffer pH 7.5; 0.1-1.8 mmol/L substrate

`CCCCCCCCCCCCCC(=O)Oc1ccc([N+](=O)[O-])cc1` [4-nitrophenyl myristate] showed a Km of 370 ± 70 µM.
